In US20190327965A1, “AGENTS AND METHODS FOR TREATMENT OF PATHOGENS” (Hexima Limited, priority 2014, published 2019):
Where two headings read alike, the source gives them in different places. Bridge positions count the residues as written; N and C are the ends. Peptide text beside a SMILES is read from it.

Key:
[1] = system: Colletotrichum graminicola
Saccharomyces cerevisiae = assay: Growth inhibition by hairpin peptide alone, Saccharomyces cerevisiae; format: cell-based; settings: hairpin peptide on its own
Source text: Some α-hairpinin and β-hairpin peptides show efficacy on their own against pathogens at a concentration higher than the concentration used in a combination with a plant defensin.

CC[C@H](C)[C@@H]1NC(=O)[C@H](CCCCN)NC(=O)[C@H]([C@@H](C)CC)NC(=O)[C@H](CCC(N)=O)NC(=O)[C@H](CCCNC(=N)N)NC(=O)[C@@H](NC(=O)[C@@H](NC(=O)[C@H](CO)NC(=O)[C@@H](N)CCCNC(=N)N)C(C)C)CSSC[C@@H](C(=O)N[C@H](C(=O)N[C@@H](CC(N)=O)C(=O)N[C@@H](CCCNC(=N)N)C(=O)N2CCC[C@H]2C(=O)N[C@@H](Cc2ccc(O)cc2)C(=O)O)[C@@H](C)O)NC(=O)[C@H](CCCCN)NC(=O)[C@H](Cc2ccc(O)cc2)NC(=O)[C@H](Cc2ccc(O)cc2)NC(=O)[C@@H]2CSSC[C@H](NC1=O)C(=O)N[C@@H](CCCNC(=N)N)C(=O)N[C@@H](CCCNC(=N)N)C(=O)N[C@@H](CCCNC(=N)N)C(=O)NCC(=O)NCC(=O)N2 [Androctonin] (H-RSVCRQIKICRRRGGCYYKCTNRPY-OH; disulfide 4-20, 10-16 (inferred); N-terminus and C-terminus assumed)
IC50 (Candida albicans): 7 µM
IC50 (Trichophyton rubrum): 1 µM
IC50 [1]: 13 µM
IC50 (Fusarium graminearum): 7 µM

CC(C)[C@@H]1NC(=O)[C@H](CCCNC(=N)N)NC(=O)[C@H](Cc2ccccc2)NC(=O)[C@@H](NC(=O)[C@H](Cc2c[nH]c3ccccc23)NC(=O)[C@H](CCCNC(=N)N)NC(=O)[C@@H](N)CCCNC(=N)N)CSSC[C@@H](C(=O)N[C@@H](CCCNC(=N)N)C(N)=O)NC(=O)[C@H](CCCCN)NC(=O)[C@H](CCCNC(=N)N)NC(=O)[C@H](Cc2ccc(O)cc2)NC(=O)[C@@H]2CSSC[C@H](NC1=O)C(=O)N[C@@H](Cc1ccc(O)cc1)C(=O)N[C@@H](CCCNC(=N)N)C(=O)NCC(=O)N[C@@H](Cc1ccccc1)C(=O)N2 [Polyphemusin I] (H-RRWCFRVCYRGFCYRKCR-NH2; disulfide 4-17, 8-13; N-terminus and C-terminus assumed)
IC50 (Candida albicans): 4 µM
IC50 (Trichophyton rubrum): 1 µM
IC50 [1]: 6 µM
IC50 (Fusarium graminearum): 3 µM

CSCC[C@@H]1NC(=O)[C@H](CC(C)C)NC(=O)[C@@H]2CSSC[C@H](NC(=O)[C@H](CCCNC(=N)N)NC(=O)[C@H](CCC(=O)O)NC(=O)[C@H](CCCNC(=N)N)NC(=O)[C@@H](NC(=O)[C@H](CCCCN)NC(=O)[C@H](CCCNC(=N)N)NC(=O)[C@H](CCCNC(=N)N)NC(=O)CNC(=O)[C@H](CCC(=O)O)NC(=O)CN)CSSC[C@@H](C(=O)N[C@@H](CCCCN)C(=O)N[C@@H](CO)C(=O)N[C@@H](CCCNC(=N)N)C(=O)N[C@@H](CCC(=O)O)C(=O)N[C@@H](CCC(N)=O)C(=O)N[C@@H](CCC(=O)O)C(=O)O)NC(=O)[C@H](CC(=O)O)NC1=O)C(=O)N[C@@H](CCC(=O)O)C(=O)N[C@@H](CCCNC(=N)N)C(=O)N[C@@H](Cc1c[nH]cn1)C(=O)N[C@@H](Cc1c[nH]cn1)C(=O)N[C@@H](CCCNC(=N)N)C(=O)NCC(=O)NCC(=O)N[C@@H](CC(=O)O)C(=O)N[C@@H](Cc1c[nH]c3ccccc13)C(=O)N[C@@H](Cc1c[nH]c3ccccc13)C(=O)N[C@@H](CCC(=O)O)C(=O)N[C@@H](CCCCN)C(=O)N[C@@H](CCC(N)=O)C(=O)N[C@@H](CCCNC(=N)N)C(=O)N2 [Sbi_HPN_104C] (H-GEGRRKCRERCERHHRGGDWWEKQRCLMDCKSREQE-OH; disulfide 7-30, 11-26 (inferred); N-terminus and C-terminus assumed)
IC50 (Candida albicans): 7 µM
IC50 (Saccharomyces cerevisiae): > 20 µM
IC50 [1]: 16 µM
IC50 (Fusarium graminearum): 7 µM

CSCC[C@@H]1NC(=O)[C@H](CCCNC(=N)N)NC(=O)[C@@H](NC(=O)[C@H](Cc2c[nH]c3ccccc23)NC(=O)[C@H](CCC(N)=O)NC(=O)[C@H](CC(C)C)NC(=O)[C@H](CC(=O)O)NC(=O)CNC(=O)[C@@H](N)CCCCN)CSSC[C@@H](C(=O)N[C@@H](CCCNC(=N)N)C(=O)N[C@@H](CCC(N)=O)C(=O)N[C@@H](CCCNC(=N)N)C(=O)N[C@@H](Cc2c[nH]cn2)C(=O)N[C@@H](CCCNC(=N)N)C(=O)NCC(=O)O)NC(=O)[C@H](CCC(=O)O)NC(=O)[C@H](CCCNC(=N)N)NC(=O)[C@H](CCC(=O)O)NC(=O)[C@@H]2CSSC[C@H](NC(=O)CNC1=O)C(=O)N[C@@H](CCC(N)=O)C(=O)N[C@@H](Cc1c[nH]c3ccccc13)C(=O)N[C@@H](CCC(N)=O)C(=O)N[C@@H](Cc1ccc(O)cc1)C(=O)NCC(=O)N[C@@H](CCCCN)C(=O)N[C@@H](CC(=O)O)C(=O)N[C@@H](CCC(N)=O)C(=O)NCC(=O)N[C@@H](CCCNC(=N)N)C(=O)N[C@@H](CCCNC(=N)N)C(=O)N[C@@H](CO)C(=O)N[C@@H](CCC(=O)O)C(=O)N2 [Sit_HPN_100A] (H-KGDLQWCRMGCQWQYGKDQGRRSECERECRQRHRG-OH; disulfide 7-29, 11-25 (inferred); N-terminus and C-terminus assumed)
IC50 (Candida albicans): 8 µM
IC50 (Saccharomyces cerevisiae): 8 µM
IC50 (Trichophyton rubrum): 20 µM
IC50 [1]: 14 µM
IC50 (Fusarium graminearum): 8 µM

EcAMP1: α-hairpinin peptide, SEQ ID NO:36, produced recombinantly in E. coli (GSGRGSCRSQCMRRHEDEPWRVQECVSQCRRRRGGGD; EcAMP1 Echinochloa crus-galli)
IC50 (Candida albicans; read-out: IC50 C. alb): 8 µM
IC50 (Saccharomyces cerevisiae): 8 µM
IC50 ([1]; read-out: IC50 Cgr): 20 µM
IC50 (Fusarium graminearum; read-out: IC50 Fgr): 7 µM
